In assay [1] the test system is Respiratory syncytial virus. Kind of assay: Antiviral activity against respiratory syncytial virus in HEp-2 human lung carcinoma cell line; […]. Type of assay: functional, organism-based.
The subject of assay [2] is HEp-2. Kind of assay: Concentration that causes cytotoxicity to uninfected HEp-2 human lung carcinoma cell line. The class given is functional.
The subject of assay [3] is Respiratory syncytial virus. The experiment in a line: Antiviral activity against respiratory syncytial virus in HEp-2 human lung carcinoma cell line. Type of assay: functional, organism-based.

SMILES strings stand for the structures.

Consider `COC(=O)Cn1c(Cn2nnc3ccccc32)nc2ccccc21`, for which the EC50 (usually the concentration at which the effect is half-maximal) in assay [1] is “Not Active”. The midpoint of cytotoxicity in assay [2], the CC50, lay at 374 µM.
In the case of `O=C(O)CCn1c(Cn2nnc3ccccc32)nc2ccccc21`, in assay [2], it took 184 µM to reach half-maximal cytotoxicity (CC50). In assay [3], this molecule gave an EC50 of 18.1 µM.
As to `O=C(O)Cn1c(Cn2nnc3ccccc32)nc2ccccc21`, the EC50 result in assay [1] was “Not Active”. Besides, the CC50 (as a rule, the concentration that lowers cell viability or growth by half) in assay [2] was 303 µM.
With `CC(C)Cn1c(Cn2nc3ccccc3n2)nc2ccccc21`, the CC50 in assay [2] stood at 106 µM. In assay [3], this molecule gave an EC50 of 47.5 µM.
In the same order, the values of `CC(C)n1c(Cn2nc3ccccc3n2)nc2ccccc21` are 58 µM and 51.5 µM.
For `N#CCCn1c(Cn2nnc3ccccc32)nc2ccccc21`, in that order: 49.3 µM and 2.69 µM.
Take `CC(C)CCn1c(Cn2nc3ccccc3n2)nc2ccccc21`: in assay [2], the midpoint of cytotoxicity, the CC50, lay at 13.5 µM. This molecule yielded an EC50 in assay [3] of 0.44 µM.
In the same order, the values of `c1ccc2[nH]c(Cn3nnc4ccccc43)nc2c1` are 164 µM and 31.1 µM.
For `CC(C)Cn1c(Cn2nnc3ccccc32)nc2ccccc21`, the EC50 result in assay [1] is “Not Active”. The molecule also yielded a CC50 in assay [2] of 15.5 µM.
`O=C(Cn1c(Cn2nnc3ccccc32)nc2ccccc21)c1ccccc1` came in with a CC50 in assay [2] of 18 µM. For the same molecule, the EC50 in assay [3] stood at 2.2 µM.
In the same order, the values of `CC(C)CCCn1c(Cn2nnc3ccccc32)nc2ccccc21` are 24 µM and 0.19 µM.
In the same order, the values of `NC(=O)CCn1c(Cn2nnc3ccccc32)nc2ccccc21` are 4.28 µM and 2.1 µM.
For `CN(C)CCCn1c(Cn2nnc3ccccc32)nc2ccccc21`, in that order: 197 µM and 1.1 µM.
For the molecule `CCCCn1c(Cn2nnc3ccccc32)nc2ccccc21`, in assay [2], the CC50 was found to be 12 µM. The same molecule displayed an EC50 in assay [3] of 0.066 µM.
In the same order, the values of `CC(O)CCn1c(Cn2nnc3ccccc32)nc2ccccc21` (stereo not given) are over 309 µM and 0.12 µM.
In the same order, the values of `CC(C)n1c(Cn2nnc3ccccc32)nc2ccccc21` are 129 µM and 15.5 µM.
In the same order, the values of `CSCCn1c(Cn2nnc3ccccc32)nc2ccccc21` are 166 µM and 0.3 µM.
`CC(C)(C)OC(=O)CCn1c(Cn2nnc3ccccc32)nc2ccccc21` came in with a CC50 in assay [2] of 9.98 µM. Moreover, the EC50 in assay [3] was 4.31 µM.
For `CS(=O)(=O)CCn1c(Cn2nnc3ccccc32)nc2ccccc21`, in that order: 337 µM and 0.25 µM.
Take `OC(Cn1c(Cn2nnc3ccccc32)nc2ccccc21)c1ccccc1` (stereo not given): the CC50 in assay [2] was determined as 37.6 µM. The EC50 in assay [3] worked out at 0.59 µM.
In the same order, the values of `CC(C)CCn1c(Cn2nnc3ccccc32)nc2ccccc21` are 39.9 µM and 0.1 µM.
Regarding `CCN(CC)CCCn1c(Cn2nnc3ccccc32)nc2ccccc21`, the EC50 entry in assay [1] is “Not Active”.
On to `C[S+]([O-])CCn1c(Cn2nnc3ccccc32)nc2ccccc21` (stereo not given), for which the CC50 in assay [2] stood at 56.4 µM. The molecule also gave an EC50 in assay [3] of 0.43 µM.
For `OCCn1c(Cn2nnc3ccccc32)nc2ccccc21`, in that order: 205 µM and 7.7 µM.
In assay [2], `CC(C)=CCn1c(Cn2nnc3ccccc32)nc2ccccc21` registered a CC50 of 102 µM. In assay [3], this molecule showed an EC50 of 3.3 µM.
In the case of `CCN(CC)OC(=O)Cn1c(Cn2nnc3ccccc32)nc2ccccc21`, the EC50 result in assay [1] is “Not Active”. In assay [2], this molecule displayed a CC50 of 250 µM.
In turn, `c1ccc(Cn2c(Cn3nnc4ccccc43)nc3ccccc32)cc1` came in with a CC50 in assay [2] of 9 µM. In assay [3], this molecule returned an EC50 of 10.5 µM.
On to `CCN(CC)OC(=O)Cn1c(Cn2nc3ccccc3n2)nc2ccccc21`, for which, in assay [1], the EC50 entry is “Not Active”.
For `CN(C)CCCn1c(Cn2nc3ccccc3n2)nc2ccccc21`, half-maximal cytotoxicity in assay [2] (CC50) was put at 182 µM. The molecule also had an EC50 in assay [3] of 3.6 µM.
For `c1ccc(CCn2c(Cn3nnc4ccccc43)nc3ccccc32)cc1`, the CC50 in assay [2] was 2.6 µM. The same molecule had an EC50 in assay [3] of 0.77 µM.
For `CC(=O)CCn1c(Cn2nnc3ccccc32)nc2ccccc21`, in that order: 59 µM and 0.52 µM.

These data come from ChEMBL document CHEMBL1136078, “Fundamental structure-activity relationships associated with a new structural class of respiratory syncytial virus inhibitor” (Bioorg Med Chem Lett, 2003).
